Our source for the RP-LC retention time values is the METLIN SMRT retention time set (Domingo-Almenara et al. 2019).

SMILES strings stand for the structures.

The series is described as follows: gradient 5% acetonitrile 3 min, to 50% in 2 min, to 85% in 15 min, held 3 min, 100 µL/min. The settings on record: column: Zorbax Extend-C18 2.1 x 50 mm; eluents: water / acetonitrile, 0.1% formic acid. The method, boiled down: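 Pure standards were run in mixtures of ~100 molecules by HPLC coupled to a quadrupole time-of-flight mass spectrometer. The column was a Zorbax Extend-C18 (2.1 × 50 mm, 1.8 μm) at 100 μL/min, with water and acetonitrile each containing 0.1% formic acid, in positive and negative ionization mode. Dead and dwell volumes were 40 μL and 900 μL. Retention time was taken from computationally picked adduct peaks, each manually inspected, with data collected over 3 months.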
`O=S(=O)(c1cc(F)cc(F)c1)N1CCCC(Cn2c(C3CC3)nc3cccnc32)C1` (centres undefined) came in with an RP-LC retention time of 806 s.

With `CN(C)C(=O)N1CCc2nn(Cc3ccccc3)c(=O)n2CC1`, the RP-LC retention time was determined as 649 s.

`Cc1ncccc1C(=O)N1[C@H]2CC[C@@H]1c1cnc(-c3ccc(F)cc3)nc1C2`: the RP-LC retention time stood at 705 s.

`O=C(CCNc1c(-c2cccc(F)c2)nc2cnccn12)NCc1ccc(Cl)cc1` displayed an RP-LC retention time of 785 s.

`CC1CCN(C(=O)c2cc(S(=O)(=O)N3CCC(C(=O)N4CCC(C)CC4)CC3)cn2C)CC1`: the RP-LC retention time is 883 s.

`Cc1ccc(S(=O)(=O)N2CC(=O)N(CCC(C)C)C(C)(C(=O)NCc3ccccc3)C2)cc1` (centres undefined): the RP-LC retention time was 1040 s.

In turn, `O=C(CSc1ccc(-c2cccc([N+](=O)[O-])c2)nn1)NCc1cccs1` showed an RP-LC retention time of 766 s.

In turn, `CCN1C(=O)COc2ccc(-c3nc(NC(=O)CC(C)C)sc3C)cc21` gave an RP-LC retention time of 962 s.

Compound `O=C1CCc2cc(S(=O)(=O)NCc3ccco3)cc3c2N1CCC3` displayed an RP-LC retention time of 677 s.

For the compound `COc1ccc(Cn2nnc(C(=O)N3CCSCC3)c2-n2cccc2)cc1`, the RP-LC retention time turned out to be 884 s.

`COc1ccc(-c2noc(CN3N=NC4C(=O)N(c5cccc(Cl)c5)C(=O)C43)n2)c(OC)c1` (centres undefined) yielded an RP-LC retention time of 912 s.

In the case of `c1ccc2cc(CC3=NCCN3)ccc2c1`, the RP-LC retention time was 649 s.

Compound `Cc1oc(C2CCN(C(=O)CCc3cc(Cl)no3)CC2)nc1C(=O)N1CCOCC1` had an RP-LC retention time of 684 s.

Regarding `O=C1CC(c2noc(-c3ccccc3)n2)CN1c1ccccc1` (centres undefined), the RP-LC retention time is 921 s.

`COc1ccc(OC)c(NC(=O)N(C)CCc2noc(COc3ccccc3)n2)c1` had an RP-LC retention time of 936 s.

Turning to `CN(C)C[C@@H]1CN(S(C)(=O)=O)C[C@H]1NC(=O)C1(c2ccccc2)CCCC1`, the RP-LC retention time amounted to 663 s.

`O=C(NCCCN1CCCC1)c1ccc2ccnc(N3CCN(c4ccc(Cl)cc4)CC3)c2c1` returned an RP-LC retention time of 639 s.

In turn, `Cc1cccc(CNS(=O)(=O)c2ccc(-c3c(C)noc3C)cc2)c1` came in with an RP-LC retention time of 983 s.

With `CCn1cc(C2=CCN(C(=O)Nc3ccc4c(c3)OCCO4)CC2)c2cccnc21`, the RP-LC retention time turned out to be 789 s.

Compound `CC1Cc2ccccc2N1C(=O)c1ccc(Cl)cc1` (centres undefined) yielded an RP-LC retention time of 972 s.

`Cn1cc(-c2nc(C(=O)NCc3cccc(Cl)c3)cs2)c2cccnc21`: the RP-LC retention time was determined as 964 s.

`CCCOC(=O)C1=C(C)NC2=C(C(=O)C(C(=O)OC)C(C)C2)C1c1ccc(OC)cc1` (centres undefined) yielded an RP-LC retention time of 907 s.

Take `O=C(CN1CCCCC1c1nc(C2CC2)no1)Nc1ccccn1` (centres undefined): the RP-LC retention time turned out to be 734 s.

As for `CCC(=O)N1CCc2cc(S(=O)(=O)CCC(=O)NC3CCCc4ccccc43)ccc21` (centres undefined), the RP-LC retention time is 860 s.

The compound `O=C(c1nnc(-c2ccc(S(=O)(=O)N3CCCCC3)cc2)o1)N1CCCCCC1` yielded an RP-LC retention time of 1010 s.

`Cc1ccn2cc(C(=O)NCCN(C)C3CCCCC3)nc2c1` gave an RP-LC retention time of 572 s.

As to `CCCCNC(=O)c1cc(NS(=O)(=O)c2c(C)cc(C)cc2C)cnc1N1CCNCC1`, the RP-LC retention time amounted to 661 s.

`Cc1nc(-c2cn(C)c3ncccc23)sc1C(=O)NCc1ccc(F)cc1F`: the RP-LC retention time amounted to 887 s.

On to `CCS(=O)(=O)N1CCC(c2noc(-c3ccccc3)n2)CC1`, for which the RP-LC retention time is 897 s.

`CNC(=O)[C@@H]1CN(S(=O)(=O)c2ccc(Cl)s2)C[C@H]1c1nc(C)no1` returned an RP-LC retention time of 758 s.

In turn, `COc1cccc(CNC(=O)Cn2c(N3CCCC3)nc(C)cc2=O)c1` showed an RP-LC retention time of 770 s.

Take `Cc1ccc2c(c1)C(=O)NC1(CCN(C(=O)c3ccc4c(c3)OCO4)CC1)N2C`: the RP-LC retention time stood at 721 s.

`Cc1cc(C(=O)N2CCN(c3ccc(-c4cccs4)nn3)CC2)no1`: the RP-LC retention time turned out to be 659 s.

For the compound `O=C(NC1CCCCCC1)c1ccc(-c2ccsc2)nc1`, the RP-LC retention time amounted to 943 s.

`Cc1ccc(S(=O)(=O)N2CCCC(C(=O)NCc3c(C)nc4sc(C)nn34)C2)cc1` (centres undefined): the RP-LC retention time was 687 s.

The compound `Cc1ccc(NC(=O)N(C)CC2CCOC2)c(Cl)c1` (centres undefined) yielded an RP-LC retention time of 766 s.

Compound `O=C(Cn1c(=O)cc(-c2nc(C3CC3)no2)c2ccccc21)NCc1ccccc1F` gave an RP-LC retention time of 902 s.

Turning to `COc1cccc(-c2noc(CN3C(=O)COc4ccccc43)n2)c1`, the RP-LC retention time turned out to be 981 s.

Consider `Cc1ccc(Sc2nccnc2N2CCCC(C(=O)NCc3ccccc3Cl)C2)cc1` (centres undefined), for which the RP-LC retention time stood at 1150 s.

`Cc1ccc(C)c(C(=O)CC2(O)C(=O)N(C)c3ccccc32)c1` (centres undefined) gave an RP-LC retention time of 818 s.

With `Cc1ccc(N2C(=O)CN(S(=O)(=O)c3ccccc3)CC2(C)C(=O)NC2CCCC2)cc1` (centres undefined), the RP-LC retention time came to 917 s.

In the case of `Cc1cccc(NC(=O)C2CCN(S(C)(=O)=O)c3cc(C)ccc3O2)c1` (centres undefined), the RP-LC retention time stood at 943 s.

`Cc1cnc(C(=O)N2CCCCCC2c2nnc(C)o2)cn1` (centres undefined) returned an RP-LC retention time of 649 s.

Consider `O=C(CN1C(=O)CCS(=O)(=O)c2ccccc21)Nc1ccc(F)cc1`, for which the RP-LC retention time was 748 s.

With `Cc1cccn2c(=O)c(-c3nn[nH]n3)cnc12`, the RP-LC retention time is 646 s.

`CCOc1ccc(-c2csc(Cc3nc(-c4ccccc4C)no3)n2)cc1` gave an RP-LC retention time of 1310 s.

`COC(=O)c1ccc2c(=O)n(Cc3ccc(OC)cc3)c(N3CCC(C)CC3)nc2c1` came in with an RP-LC retention time of 1330 s.

In turn, `CCc1noc(-c2ccc(-n3ncc(C(=O)NC4CC4)c3C)nc2)n1` gave an RP-LC retention time of 792 s.

For `Cc1cc(C)c(NC(=O)C2CCN(c3c(C(=O)N4CCOCC4)cnc4snc(C)c34)CC2)c(C)c1`, the RP-LC retention time was determined as 826 s.

For the compound `CCCn1cc(S(=O)(=O)Nc2cccc(OC)c2)c2cccnc21`, the RP-LC retention time was determined as 840 s.

`COc1ccc(Cl)cc1NC(=O)N1CCc2nc[nH]c2C1` gave an RP-LC retention time of 604 s.

`CN1CCC([C@@H]2CN(S(=O)(=O)c3ccc(Cl)s3)C[C@H]2C(N)=O)CC1` came in with an RP-LC retention time of 573 s.

As for `COC(=O)C1=CN(c2ccccc2C)c2ccc(F)cc2S1(=O)=O`, the RP-LC retention time was 879 s.

`CCCN1CCN(C(=O)C(C)n2nc(C)c3nn(-c4ccccc4)c(-n4cccc4)c3c2=O)CC1` (centres undefined) displayed an RP-LC retention time of 692 s.

`COc1ncccc1CNS(=O)(=O)c1ccccc1` returned an RP-LC retention time of 757 s.

For the compound `Cc1ccc2ncn(C3CCN(S(=O)(=O)c4ccc(C)c(C)c4)CC3)c(=O)c2c1`, the RP-LC retention time was determined as 998 s.

Compound `Cc1ccc(-c2nnc(-c3cccc(S(=O)(=O)N4CCC(C(=O)O)CC4)c3)o2)cc1` yielded an RP-LC retention time of 860 s.

On to `COC(=O)C1=CN(c2ccccc2C)c2ccccc2S1(=O)=O`, for which the RP-LC retention time is 848 s.

Consider `COc1ccc(-c2nn(CCCC(=O)N3CCN(c4ccccn4)CC3)c(=O)c3noc(C)c23)cc1`, for which the RP-LC retention time was found to be 636 s.

The compound `CCOc1ccccc1NC(=O)N1CCN(C(=O)N2C[C@H]3C[C@@H](C2)[C@H]2CCCC(=O)N2C3)CC1` came in with an RP-LC retention time of 687 s.

`CC(=O)N1CCN(C(=O)[C@@]23CCCC[C@H]2N(CCC(C)C)C(=O)CC3)CC1` gave an RP-LC retention time of 662 s.

For the compound `CCc1ccc(S(=O)(=O)c2ccccc2)cc1S(=O)(=O)NCCCN(C)C`, the RP-LC retention time is 687 s.

Regarding `CCN(Cc1ccccc1)C(=O)CN1C(=O)CCc2cc(Br)ccc21`, the RP-LC retention time was found to be 1000 s.

Regarding `Cc1ccc(C)c(CNC(=O)C2CCCN(c3cnc4nccnc4c3)C2)c1` (centres undefined), the RP-LC retention time is 759 s.

In turn, `CCOC(=O)c1c(C)[nH]c(C(=O)N2CCCC(C(=O)NCCCc3ccccc3)C2)c1C` (centres undefined) displayed an RP-LC retention time of 867 s.

`CS(=O)(=O)Nc1ccc(-c2noc(CNC(=O)Cc3ccc(Cl)cc3)n2)cc1` returned an RP-LC retention time of 788 s.

`COc1ccc(CNS(=O)(=O)c2c(C)sc(C)c2-c2cc(C(F)(F)F)on2)cc1` showed an RP-LC retention time of 1150 s.

Compound `COc1cccc(CN2CCC3(CC2)CC(O)CCO3)n1` (centres undefined) returned an RP-LC retention time of 572 s.

As to `O=C(Nc1ccc(C(F)(F)F)cc1)c1cnc(-c2ccc(F)cc2)nc1-c1ccncc1`, the RP-LC retention time turned out to be 1070 s.

Compound `Cc1cccc(NC(=O)C2CCCN(c3ncnc4c3oc3ccccc34)C2)c1` (centres undefined) came in with an RP-LC retention time of 845 s.

`COc1ccc(S(=O)(=O)NCc2ccc3c(c2)CCN3C(=O)C(C)C)cc1`: the RP-LC retention time worked out at 861 s.

On to `O=S(=O)(Nc1cnn(-c2ncc(N3CCCC3)cn2)c1)c1ccc2c(c1)CCCC2`, for which the RP-LC retention time came to 983 s.

In turn, `CCOc1ccc2nc(C(=O)NC3CCCC3)cn2n1` displayed an RP-LC retention time of 822 s.

In turn, `CCN1CCCn2cc(S(=O)(=O)Nc3cc(C)ccc3C)cc2C1=O` showed an RP-LC retention time of 756 s.

With `CSc1ccc(-c2nc3cccc(C)n3c2Nc2ccc(C)cc2)cc1`, the RP-LC retention time amounted to 824 s.

`CCOc1ccccc1NC(=O)N1c2ccccc2CC1c1nc(C2CC2)no1` (centres undefined) had an RP-LC retention time of 1180 s.

In turn, `Cc1ccc(CNS(=O)(=O)c2ccc(-c3c(C)noc3C)cc2)cc1` displayed an RP-LC retention time of 996 s.

`CCOC(=O)c1nc(Nc2cc(Cl)c(OC)cc2OC)c2ccccc2n1`: the RP-LC retention time worked out at 964 s.

Consider `COc1ccc(N2CCN(C(=O)C3CCCN(c4ncnc5c4nc4n5CCCCC4)C3)CC2)cc1` (centres undefined), for which the RP-LC retention time worked out at 738 s.
